Source: patent US20110086759A1, “CHEMICAL COMPOUNDS” (SYNGENTA CROP PROTECTION, INC., priority 2007, published 2011)

Columns and labels:
Type in all cases: in vivo
Solanum nigrum (SOLNI) [1] = experiment: Pre-emergence biological efficacy, glasshouse pot test; conditions: 312 h
Outline: (§1)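 Visual phytotoxicity (0 no damage, 100 total damage) assessed 13 d after treatment. Soil-sown pots sprayed one day post-sowing; dose 1000 or 250 g/ha; formulation in acetone/water 50:50, 0.5% Tween 20.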

[2] = tested on: Echinochloa crus-galli (ECHCG); experiment: as above; conditions: 312 h
Outline: as §1

[3] = tested on: Ipomea hederaceae (IPOHE); experiment: as above; conditions: Ipomoea hederacea, 312 h
Outline: as §1

[4] = tested on: Alopecurus myosuroides (ALOMY); experiment: as above; conditions: 312 h
Outline: as §1

Setaria faberi (SETFA) [5] = experiment: as above; conditions: 312 h
Outline: as §1

[6] = tested on: Amaranthus retoflexus (AMARE); experiment: as above; conditions: Amaranthus retroflexus, 312 h
Outline: as §1

Solanum nigrum (SOLNI) [7] = experiment: Post-emergence biological efficacy, glasshouse pot test; conditions: 312 h
Outline: (§2)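 Pot-grown weeds were sprayed 8 days after sowing with test compound in acetone/water (50:50) with 0.5% Tween 20 at 1000 or 250 g/ha. Glasshouse at 24/16° C day/night, 14 h light, 65% humidity. Damage scored 0-100 (100 = total damage) after 13 days.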

[8] = tested on: Echinochloa crus-galli (ECHCG); experiment: as above; conditions: 312 h
Outline: as §2

[9] = tested on: Ipomea hederaceae (IPOHE); experiment: as above; conditions: Ipomoea hederacea, 312 h
Outline: as §2

[10] = tested on: Alopecurus myosuroides (ALOMY); experiment: as above; conditions: 312 h
Outline: as §2

Setaria faberi (SETFA) [11] = experiment: as above; conditions: 312 h
Outline: as §2

[12] = tested on: Amaranthus retoflexus (AMARE); experiment: as above; conditions: Amaranthus retroflexus, 312 h
Outline: as §2

[13] = pre-emergence, 1,000 g/ha, evaluated after 13 days (100=total damage; 0=no damage), read-out: Percentage damage SOLNI
[14] = pre-emergence, 1,000 g/ha, evaluated after 13 days (100=total damage; 0=no damage), read-out: Percentage damage ECHCG
[15] = pre-emergence, 1,000 g/ha, evaluated after 13 days (100=total damage; 0=no damage), read-out: Percentage damage IPOHE
[16] = pre-emergence, 1,000 g/ha, evaluated after 13 days (100=total damage; 0=no damage), read-out: Percentage damage ALOMY
[17] = pre-emergence, 1,000 g/ha, evaluated after 13 days (100=total damage; 0=no damage), read-out: Percentage damage SETFA
[18] = pre-emergence, 1,000 g/ha, evaluated after 13 days (100=total damage; 0=no damage), read-out: Percentage damage AMARE
[19] = post-emergence, 1,000 g/ha, evaluated after 13 days (100=total damage; 0=no damage), read-out: Percentage damage caused to weed species, SOLNI
[20] = post-emergence, 1,000 g/ha, evaluated after 13 days (100=total damage; 0=no damage), read-out: Percentage damage caused to weed species, ECHCG
[21] = post-emergence, 1,000 g/ha, evaluated after 13 days (100=total damage; 0=no damage), read-out: Percentage damage caused to weed species, IPOHE
[22] = post-emergence, 1,000 g/ha, evaluated after 13 days (100=total damage; 0=no damage), read-out: Percentage damage caused to weed species, ALOMY
[23] = post-emergence, 1,000 g/ha, evaluated after 13 days (100=total damage; 0=no damage), read-out: Percentage damage caused to weed species, SETFA
[24] = post-emergence, 1,000 g/ha, evaluated after 13 days (100=total damage; 0=no damage), read-out: Percentage damage caused to weed species, AMARE
[25] = pre-emergence, rate 1,000 g/ha, evaluated after 13 days (100=total damage to plant; 0=no damage), read-out: Percentage damage caused to weed species, SOLNI
[26] = pre-emergence, rate 1,000 g/ha, evaluated after 13 days (100=total damage to plant; 0=no damage), read-out: Percentage damage caused to weed species, ECHCG
[27] = pre-emergence, rate 1,000 g/ha, evaluated after 13 days (100=total damage to plant; 0=no damage), read-out: Percentage damage caused to weed species, IPOHE
[28] = pre-emergence, rate 1,000 g/ha, evaluated after 13 days (100=total damage to plant; 0=no damage), read-out: Percentage damage caused to weed species, ALOMY
[29] = pre-emergence, rate 1,000 g/ha, evaluated after 13 days (100=total damage to plant; 0=no damage), read-out: Percentage damage caused to weed species, SETFA
[30] = pre-emergence, rate 1,000 g/ha, evaluated after 13 days (100=total damage to plant; 0=no damage), read-out: Percentage damage caused to weed species, AMARE
[31] = Rate 1,000 g/ha, post-emergence spray, evaluated after 13 days (100=total damage to plant; 0=no damage to plant), read-out: Percentage damage caused to weed species, post-emergence, SOLNI
[32] = Rate 1,000 g/ha, post-emergence spray, evaluated after 13 days (100=total damage to plant; 0=no damage to plant), read-out: Percentage damage caused to weed species, post-emergence, ECHCG
[33] = Rate 1,000 g/ha, post-emergence spray, evaluated after 13 days (100=total damage to plant; 0=no damage to plant), read-out: Percentage damage caused to weed species, post-emergence, IPOHE
[34] = Rate 1,000 g/ha, post-emergence spray, evaluated after 13 days (100=total damage to plant; 0=no damage to plant), read-out: Percentage damage caused to weed species, post-emergence, ALOMY
[35] = Rate 1,000 g/ha, post-emergence spray, evaluated after 13 days (100=total damage to plant; 0=no damage to plant), read-out: Percentage damage caused to weed species, post-emergence, SETFA
[36] = Rate 1,000 g/ha, post-emergence spray, evaluated after 13 days (100=total damage to plant; 0=no damage to plant), read-out: Percentage damage caused to weed species, post-emergence, AMARE

| SMILES | pest or weed control at 1000 g/ha (Solanum nigrum (SOLNI) [1]; [13]) | pest or weed control at 1000 g/ha [2, 14] | pest or weed control at 1000 g/ha [3, 15] | pest or weed control at 1000 g/ha [4, 16] | pest or weed control at 1000 g/ha (Setaria faberi (SETFA) [5]; [17]) | pest or weed control at 1000 g/ha [6, 18] | pest or weed control at 1000 g/ha (Solanum nigrum (SOLNI) [7]; [19]) | pest or weed control at 1000 g/ha [8, 20] | pest or weed control at 1000 g/ha [9, 21] | pest or weed control at 1000 g/ha [10, 22] | pest or weed control at 1000 g/ha (Setaria faberi (SETFA) [11]; [23]) | pest or weed control at 1000 g/ha [12, 24] | pest or weed control at 1000 g/ha (Solanum nigrum (SOLNI) [1]; [25]) | pest or weed control at 1000 g/ha [2, 26] | pest or weed control at 1000 g/ha [3, 27] | pest or weed control at 1000 g/ha [4, 28] | pest or weed control at 1000 g/ha (Setaria faberi (SETFA) [5]; [29]) | pest or weed control at 1000 g/ha [6, 30] | pest or weed control at 1000 g/ha (Solanum nigrum (SOLNI) [7]; [31]) | pest or weed control at 1000 g/ha [8, 32] | further results |
| --- | --- | --- | --- | --- | --- | --- | --- | --- | --- | --- | --- | --- | --- | --- | --- | --- | --- | --- | --- | --- | --- |
| COC(=O)c1nc(C2CC2)nc(NCc2cccc(OC)c2OC)c1Cl [Compound 4-109, 5-Chloro-2-cyclopropyl-4-(2,3-dimethoxyphenyl-methylamino)-6-methoxycarbonyl-pyrimidine] | 50% | 30% | 80% | 20% | 30% | 70% | 90% | 60% | 100% | 20% | 80% | 100% | – | – | – | – | – | – | – | – | – |
| COC(=O)c1nc(C2CC2)nc(N(C)Cc2ccc(N)cc2)c1Cl [Compound 5-86, 4-[N-(4-aminophenylmethyl)-N-methyl-amino]-5-chloro-2-cyclopropyl-6-methoxycarbonyl-pyrimidine] | – | – | – | – | – | – | – | – | – | – | – | – | 100% | 50% | 100% | 40% | 30% | 100% | 90% | 70% | pest or weed control at 1000 g/ha [9, 33]: 100%; pest or weed control at 1000 g/ha [10, 34]: 40%; pest or weed control at 1000 g/ha (Setaria faberi (SETFA) [11]; [35]): 90%; pest or weed control at 1000 g/ha [12, 36]: 100% |
| COC(=O)c1nc(C2CC2)nc(NC2(CCc3ccccc3)CC2)c1Cl [Compound 4-17, 5-Chloro-2-cyclopropyl-6-methoxycarbonyl-4-[1-(2-phenylethyl)-cyclopropylamino]-pyrimidine] | 10% | 20% | 70% | 10% | 0% | 50% | 70% | 30% | 60% | 20% | 60% | 100% | – | – | – | – | – | – | – | – | – |
| COC(=O)c1nc(C2CC2)nc(NC2(c3ccc(Cl)cc3)CC2)c1Cl [Compound 4-5, 5-Chloro-4-[1-(4-chlorophenyl)cyclo-propylamino]-2-cyclopropyl-6-methoxycarbonyl-pyrimidine] | 0% | 0% | 40% | 0% | 0% | 40% | 80% | 0% | 70% | 20% | 40% | 100% | – | – | – | – | – | – | – | – | – |
| COC(=O)c1nc(C2CC2)nc(NCC(F)c2ccc(Cl)cc2Cl)c1Cl (stereo not drawn) [Compound 4-239, 5-Chloro-2-cyclopropyl-4-[2-(2,4-dichlorophenyl)-2-fluoro-ethylamino]-6-methoxycarbonyl-pyrimidine] | 0% | 0% | 10% | 0% | 0% | 20% | 60% | 0% | 50% | 0% | 20% | 90% | – | – | – | – | – | – | – | – | – |
| COC(=O)c1nc(-c2ccc(Cl)c(C)c2)nc(NCc2ccco2)c1Cl [Compound 216-48, 5-Chloro-2-(4-chloro-3-methylphenyl)-4-(furan-2-ylmethyl-amino)-6-methoxy-carbonylpyrimidine] | – | – | – | – | – | – | – | – | – | – | – | – | 30% | 30% | 0% | 0% | 30% | 30% | 60% | 30% | pest or weed control at 1000 g/ha [9, 33]: 30%; pest or weed control at 1000 g/ha [10, 34]: 10%; pest or weed control at 1000 g/ha (Setaria faberi (SETFA) [11]; [35]): 10%; pest or weed control at 1000 g/ha [12, 36]: 100% |
